Laboratory results as given in ChEMBL document CHEMBL1201862, “PubChem BioAssay data set” (2004).
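Grown in 96-well plates, cells were treated for 48 hours with each compound at five concentrations. Insufficient inhibition: endpoint recorded as highest concentration tested. Here, GI50 denotes the concentration required for 50% inhibition of growth.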 Calls of active or inactive are those of the source. Rule as the data show it: active = GI50 up to about 1.1 µM and inactive = higher.

Legend:
Test in all cases: NCI-60 cell line screen, 48 h
BT-549 = tested on: BT-549
DU-145 = tested on: DU-145
Hs-578T = tested on: Hs-578T
MDA-MB-435 = tested on: MDA-MB-435
MDA-N = tested on: MDA-N
PC-3 = tested on: PC-3
T47D = tested on: T47D

Measured: GI50

CC(C)(C)OC(=O)C1=C(C(=O)OC(C)(C)C)SC2(S1)C(C(=O)OC(C)(C)C)=C(C(=O)OC(C)(C)C)Sc1c2ssc1=O
inactive: BT-549 67 µM | DU-145 31 µM | Hs-578T 75.5 µM | MDA-MB-435 27.5 µM | MDA-N 45.2 µM | PC-3 41 µM | T47D 61 µM

CC(C)(C)OC(=O)NCCc1ccc(N)cc1
inactive: DU-145 > 100 µM | MDA-MB-435 > 100 µM | MDA-N > 100 µM | PC-3 > 100 µM | T47D 74.5 µM
